Legend:
[1] = molecular target: GAPDH (Oryctolagus cuniculus, UniProt P46406); assay: In vitro alkylation of GAPDH, mass spectrometric analysis; format: biochemical, rabbit
Excerpt: FIG. 21 illustrates the mass spectrometric analysis of an in vitro reaction of GAPDHvith EFAD-2. Four residues were detected and confirmed-as being targets for EfAD-2 in treated rabbit GAPDH. The peptides were alkylated as Cys244 (a), His163 (b), Cys149 (c) and His328 (d). Upper panels show EFAD-2 modified peptides and lower panels show spectra from corresponding native peptide.
To more specifically test the binding of EFADs to nucleophilic residues in proteins, we tested whether GAPDH was alkylated by EFADs. This enzyme is a well-characterized target for electrophiles and becomes easily inactivated by nitrosylation, oxidation or nucleophilic addition.

[2] = system: inducible nitric oxide synthase (iNOS); assay: iNOS induction and nitrite accumulation in activated RAW264.7 cells; format: cell-based, murine; settings: RAW264.7 activated with Kdo2 and IFNγ
Procedure: FIG. 11 illustrates modulation of anti-oxidant and inflammatory responses by 17-oxoDHA and 17-oxoDPA. RAW264.7 cells were treated with increasing concentration of 17-oxoDHA and 17-oxoDPA. (a) Cells were harvested 1 h after treatment and Nrf2 levels were quantified in nuclear extracts, (b) Cells were harvested 18 h after treatment and HO—I and Nqol (upper band) levels were measured by western blot, (c, d) RAW264.7 cells were treated with increasing concentration of 17-oxoDHA and 17-oxoDP A for 6 h and Kdo2+IFNγ were added. Samples were collected at 12 h. IL-6, MCP-I and IL-IO levels were measured in the cell media by Quantikine ELISA Kit (R&D Systems) and normalized by the total protein content (c); Nitrite levels were measured in the cell media and normalized by the total protein content and iNOS and Cox-2 levels were measured in total cell lysates (d); (e) PPARγ beta-lactamase reporter assays were performed for Rosiglitazone, 17-OxoDPA, 17-OxoDHA, 15d-PGJ2, 17-hydroxyDHA, DPA, and DHA with concentrations ranging from 0.5-10,000 nM.
For activation experiments RAW 264.7 cells were seeded, incubated overnight, and treated at approximately 80% confluence with the indicated compounds 47. Non-activated controls were treated with vehicle alone. During activation, cells were maintained in an activation medium (SMEM) of Minimum Essential Medium Eagle (Cellgro, 17-305)+2% FBS supplemented with L-glutamine (584 mg/L), Na-pyruvate (110 mg/L) and Hepes (3.57 g/L, pH 7.4). For inhibition studies, inhibitors were added to the medium at the time of activation and MTT assays were used to confirm cell viability. Cells were harvested 20 h post activation (unless otherwise indicated) in 50 mM phosphate buffer (pH 7.4) and snap frozen in liquid N2. […]
Protein concentrations of samples were measured by BCA assay (Pierce). […] Actin (detected by Sigma A2066) was used as loading control. […]
(§1) Total nitrite and nitrate concentration was measured in cell culture media by Griess reaction using the Nitrate/Nitrite Colorimetric Assay Kit (Cayman Chemical).

[3] = system: NF-κB and Stat-1; assay: p65 nuclear translocation and DNA binding, Stat1 phosphorylation; format: cell-based, murine; settings: RAW264.7
Excerpt: The expression of iNOS and the analyzed pro-inflammatory cytokines is dependent on the activity of NF-κB and Stat-1. It has been reported that electrophilic lipids can repress the activation of these transcriptional factors either by direct adduction to the DNA binding domain of the NF-K B subunit p65 and to the inhibitor IκBα or via indirect mechanisms.

[4] = system: RAW264.7 cells; assay: EFAD formation in activated RAW264.7 cells treated with inhibitors; format: cell-based, murine
[5] = system: inducible nitric oxide synthase (iNOS); assay: iNOS induction and nitrite accumulation in bone marrow-derived macrophages; format: cell-based, C57BL/6 mice; settings: BMDMs activated with Kdo2 and IFNγ
Procedure: FIG. 24 illustrates that 17-oxoDHA and 7-oxoDPA modulate the inflammatory response. in bone marrow-derived macrophages. Cells were treated with increasing concentration of 17-oxoDHA and 17oxoDPA for 6 h and Kdo2 Lipid A (0.5 μg/ml) and IFNγ were added. Samples were collected at 12 h. (2) Nitrite levels were measured in the cell media and normalized to the total protein content: iNOS and COX-2 levels were measured in total cell lystaes. (b) IL-6, MCP-I, and IL-10 levels were measured in cell media and normalized to the total protein content.
(§2) Bone marrow derived macrophages were isolated from C57BL/6 mice according to the protocol developed by Davies. See Davies, J. Q. & Gordon, S. Isolation and culture of murine macrophages. Methods Mol Biol 290, 91-103 (2005).
Protein concentrations of samples were measured by BCA assay (Pierce). The following primary antibodies were used: Nrf2 (Santa Cruz, sc-722), HO—I (Assay Design, SPA-896), Nqol (Abeam, ab34173), Cox-2 (Santa Cruz, sc-1745), iNOS (BD Transduction Lab, 610332), Lamin Bl (Abeam, ab16048). Actin (detected by Sigma A2066) was used as loading control. Secondary antibodies were purchased from Santa Cruz Biotechnology.
as §1

[6] = molecular target: T1, Purified ovine COX-2 (Ovis aries, UniProt P79208); assay: COX-2 reaction with DPA ± ASA, OH-DPA formation; format: biochemical; settings: ovine COX-2 + DPA 10 μM ± 2 mM ASA
T1 construct: Ovine placental COX-2 (Cayman 60120) was also from Cayman Chemicals; purchased Cayman Chemicals 60120; host or cells: ovine placenta
T1 sequence (P79208 17-603): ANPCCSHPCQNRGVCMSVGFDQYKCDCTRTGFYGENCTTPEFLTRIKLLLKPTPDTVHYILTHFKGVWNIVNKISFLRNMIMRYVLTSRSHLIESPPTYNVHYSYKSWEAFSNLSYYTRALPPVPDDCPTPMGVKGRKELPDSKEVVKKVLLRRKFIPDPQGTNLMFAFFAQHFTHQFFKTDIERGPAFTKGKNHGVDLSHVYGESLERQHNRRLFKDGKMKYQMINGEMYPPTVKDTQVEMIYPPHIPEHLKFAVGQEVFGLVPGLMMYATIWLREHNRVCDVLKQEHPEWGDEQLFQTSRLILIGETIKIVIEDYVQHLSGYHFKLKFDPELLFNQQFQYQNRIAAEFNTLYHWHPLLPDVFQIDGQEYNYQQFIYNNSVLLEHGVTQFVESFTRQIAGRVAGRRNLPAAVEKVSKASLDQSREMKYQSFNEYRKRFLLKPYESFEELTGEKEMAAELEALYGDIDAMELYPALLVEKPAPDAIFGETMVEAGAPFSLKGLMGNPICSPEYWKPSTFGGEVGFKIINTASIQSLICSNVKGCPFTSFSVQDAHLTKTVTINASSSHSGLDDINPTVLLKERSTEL
Procedure: The results of the COX-2 inhibition study implicate a the involvement of COX-2 in EFAD formation and motivated the development of an in vitro model of enzymatic EFAD synthesis. Purified ovine COX-2 was used to generate the EFAD-2 precursor (OH-DPA), (FIG. 7c-e), while the EFAD-I precursor, hydroxy-DHA (OH-DHA), was produced from DHA by COX-2 (FIGS. 19a and 19b).
Ovine placental COX-2 (20 U/ml) was preincubated in Tris/heme/phenol (THP) buffer ±2 mM ASA at 37° C. THP buffer, freshly prepared before each reaction, consisted of Tris*C1 (100 mM, pH 8.1), hematin (1 μM), and phenol (1 μM). The reaction was initiated by addition of the indicated fatty acids at a concentration of 10 μM. Reactions were terminated at the indicated time points by addition of ice-cold acetonitrile (9× reaction volume) and COX-2 protein was removed by centrifugation. Product formation was monitored by RP-HPLC-MS/MS in multiple reaction monitoring (MRM) mode following the loss Of CO2 (m/z 345/301 and m/z 343/299 for OH-DPA and OH-DHA, respectively).

[7] = system: bone marrow-derived macrophage (BMDM) cells; assay: EFAD formation in activated bone marrow-derived macrophages; format: cell-based, C57BL/6 murine; settings: BMDM activated with Kdo2 and IFNγ
Procedure: FIG. 8 illustrates formation of EFAD in activated primary murine macrophages. Bone marrow derived macrophages were activated with Kdo2 (0.5 μg/ml) and IFNγ (200 U/ml) and EFADs were detected 1O h post activation.
as §2
EFADs are produced by primary macrophages isolated from mouse bone marrow. […] Thus, C57BL/6 murine primary hematopoietic stem cells were differentiated to macrophages, activated with Kdo2 and IFNγ and analyzed for the formation of EFADs. Five out of the six EFAD species (EFAD-I, 2, -3, -5 and -6) were observed which co-eluted with those produced by RAW 264.7 cells and with the available standards.

GAPDH, sequence (P46406 whole entry): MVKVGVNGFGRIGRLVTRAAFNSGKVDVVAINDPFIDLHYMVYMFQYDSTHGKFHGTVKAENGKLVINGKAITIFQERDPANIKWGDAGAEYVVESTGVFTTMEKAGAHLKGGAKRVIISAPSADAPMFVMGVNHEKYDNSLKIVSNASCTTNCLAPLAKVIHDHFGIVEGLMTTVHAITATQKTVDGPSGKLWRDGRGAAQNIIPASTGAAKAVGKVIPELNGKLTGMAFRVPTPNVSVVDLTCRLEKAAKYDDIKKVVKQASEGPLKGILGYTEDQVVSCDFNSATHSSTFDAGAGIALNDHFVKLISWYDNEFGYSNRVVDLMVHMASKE

Row | SMILES | adduct formation with GAPDH residues [1] | iNOS induction and accumulation of nitrite in the cell media [2] | p65 nuclear translocation and DNA binding, Stat1 phosphorylation [3] | EFAD level +Celecoxib (↓COX) ([4]; RAW264.7 activated with Kdo2 and IFNγ, 20 h post activation) | EFAD level +Aspirin (↓COX) ([4]; RAW264.7 activated with Kdo2 and IFNγ, ASA 200 μM, 20 h post activation) | EFAD level +ETYA (↓COX) ([4]; RAW264.7 activated with Kdo2 and IFNγ, ETYA 25 μM, 20 h post activation) | EFAD level +MAFP (↓PLA2) ([4]; RAW264.7 activated with Kdo2 and IFNγ, MAFP 25 μM, 20 h post activation) | EFAD level +Diclofenac (↓COX) ([4]; RAW264.7 activated with Kdo2 and IFNγ, diclofenac 1 μM, 20 h post activation) | EFAD level +Genisteine ([4]; RAW264.7 activated with Kdo2 and IFNγ, genistein 25 μM, 20 h post activation) | EFAD level +Ibuprofen (↓COX) ([4]; RAW264.7 activated with Kdo2 and IFNγ, ibuprofen 100 μM, 20 h post activation) | EFAD level +Indomethacin (↓COX) ([4]; RAW264.7 activated with Kdo2 and IFNγ, indomethacin 25 μM, 20 h post activation) | iNOS induction and accumulation of nitrite in the cell media [5] | rate and extent of formation of OH-DPA [6] | extent of EFAD formation with ASA [7] | increase of EFAD formation ([4]; ASA 200 μM, all EFADs except EFAD-4 and EFAD-6)
1 | CCC=CCC=CC=CC(=O)CC=CCC=CCCCCCC(=O)O (mixture of isomers) [EFAD-2] | readily formed adducts with Cys244, Cys149, His 163 and His328 | strongly and dose-dependently repressed | did not affect | ↓ | ↑ | ↓ | ↓ | ↓ | ↓ | ↓ | ↓ | strongly and dose-dependently repressed |  |  | 
2 | CC(=O)Oc1ccccc1C(=O)O [ASA, acetyl salicylic acid] |  |  |  |  |  |  |  |  |  |  |  |  | increased the rate and extent of formation | increased about two to three fold | about 2.5 fold
